Values of other authors, collected in patent US20130183383A1, “PHARMACEUTICAL COMPOSITIONS FOR CALANOLIDES, THEIR DERIVATIVES AND ANALOGUES, AND PROCESS FOR PRODUCING THE SAME” (Craun Research SDN BHD, priority 2010, published 2013).

Conditions: soft gelatin capsules containing 100 mg (+)-calanolide A in oil-based / sesame oil-based vehicle

Bioavailability: poor bioavailability
Compound: CCCc1cc(=O)oc2c3c(c4c(c12)OC(C)(C)C=C4)O[C@H](C)[C@@H](C)[C@@H]3O [calanolide A, (+)-Calanolide A]
